# EP3061750A1, “PYRAZOLE AMIDE COMPOUND CONTAINING DIPHENYL ETHER, AND APPLICATION THEREOF, AND PESTICIDE COMPOSITION” (Central China Normal University, priority 2013, dated 2015)
# Read-outs that look alike come from different tables or passages of the source.
# What was measured:
# [1] = tested on: Cucumber powdery mildew (Sphaerotheca uliginea); assay: pot in vivo assay of bactericidal activity, cucumber powdery mildew; conditions: for pest or weed control at 200 µg/mL: Cucumis sativus, read-out: Efficacy(%) cucumber powery mildew
# Excerpt: (§1) This test is used to determine the bactericidal activity of the compounds prepared in Example 1, Preparation Examples 1 and 2.
# (§2) The targets used in the test example are rice sheath blight and cucumber powdery mildew.
# (§3) Test Method: According to "Standard Practice for determination of pesticide biological activity (SOP)", pyrazole amide compound containing diphenyl ether was dispensed to 5% emulsifiable concentrates (hereinafter referred to as 5% EC), […] method (pot in vivo assay). The screening results on the two test targets of the compounds prepared in Example 1, Preparation Examples 1 and 2 were shown in Table 4.
# Cucumber powdery mildew (Sphaerotheca uliginea)
# A cucumber seedling with uniform growth in true leaf stage was chosen, and dried in shade for 24h after spray treatment. Fresh cucumber powdery mildew spores on the cucumber leaves were collected and washed, and filtered through a double gauze to prepare a spore suspension with concentration of about 100,000 / ml, then spray inoculation was applied. The test materials inoculated were moved into artificial climate with relative humidity of 60-70% and temperature of 21-23 °C (indoor lighting), after about 10 days, investigating and grading were carried out according to the incidence of the blank control, and the control effect was calculated according to the disease index.
# (§4) Investigation method and grading standard adopted "Guidelines for the field efficacy trials of pesticides", and the control effect was calculated with the disease index. The disease index = Σ(number of diseased leaves at each grade×relative grade value) × 100/(total number of leaves×9); [formula] Control effect (%) = (disease index of control−disease index of treated) × 100/disease index of control. [formula]
# [2] = tested on: Rice sheath blight (Rhizoctonia solani); assay: pot in vivo assay of bactericidal activity, rice sheath blight; conditions: for pest or weed control at 200 µg/mL: Rhizoctonia solani, read-out: Efficacy(%) rice sheath blight
# Excerpt: as §1, §2
# as §3, with “EC), the” for “EC),”
# Rice sheath blight (Rhizoctonia solani)
# Two potted rice seedlings with uniform growth in true leaf stage were chosen, and dried by air after spray treatment. The side of bacteria cake with mycelium was closely attached on the leaves, after cultured at 22-26 °C under dark light in a moisture preserving manner for 24h, then cultured with natural light for about 4 days. The diameter of disease spot of each inoculating point was measured by using a caliper after the control material was fully attacked by disease, and the control effect was calculated.
# as §4
# [3] = target: T1, succinate dehydrogenase (Sus scrofa, UniProt A5GZW8+D0VWV4+Q007T0); assay: inhibitory activity on succinate dehydrogenase (DCIP reduction at 600 nm); format: biochemical, pig
# T1 construct: succinate dehydrogenase, which was isolated from pig hearts; from tissue; host or cells: pig heart
# T1 sequence (Q007T0 29-280): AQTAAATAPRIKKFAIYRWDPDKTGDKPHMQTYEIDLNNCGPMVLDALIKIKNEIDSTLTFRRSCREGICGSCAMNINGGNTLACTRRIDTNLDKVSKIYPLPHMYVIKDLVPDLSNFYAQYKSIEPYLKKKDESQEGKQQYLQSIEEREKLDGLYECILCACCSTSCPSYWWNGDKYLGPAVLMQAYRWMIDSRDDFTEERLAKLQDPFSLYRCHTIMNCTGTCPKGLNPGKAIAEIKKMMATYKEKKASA
# T1 sequence (D0VWV4 30-169): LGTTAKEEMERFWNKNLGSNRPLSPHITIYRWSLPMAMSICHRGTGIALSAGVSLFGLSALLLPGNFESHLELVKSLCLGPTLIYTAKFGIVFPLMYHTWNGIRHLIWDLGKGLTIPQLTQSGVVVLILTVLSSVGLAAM
# T1 sequence (A5GZW8 57-159 limits assumed): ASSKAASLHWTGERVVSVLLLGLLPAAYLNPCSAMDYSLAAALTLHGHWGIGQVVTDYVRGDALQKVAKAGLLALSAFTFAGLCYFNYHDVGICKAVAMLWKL
# T1 sequence (Q0QF01 43-664 partner): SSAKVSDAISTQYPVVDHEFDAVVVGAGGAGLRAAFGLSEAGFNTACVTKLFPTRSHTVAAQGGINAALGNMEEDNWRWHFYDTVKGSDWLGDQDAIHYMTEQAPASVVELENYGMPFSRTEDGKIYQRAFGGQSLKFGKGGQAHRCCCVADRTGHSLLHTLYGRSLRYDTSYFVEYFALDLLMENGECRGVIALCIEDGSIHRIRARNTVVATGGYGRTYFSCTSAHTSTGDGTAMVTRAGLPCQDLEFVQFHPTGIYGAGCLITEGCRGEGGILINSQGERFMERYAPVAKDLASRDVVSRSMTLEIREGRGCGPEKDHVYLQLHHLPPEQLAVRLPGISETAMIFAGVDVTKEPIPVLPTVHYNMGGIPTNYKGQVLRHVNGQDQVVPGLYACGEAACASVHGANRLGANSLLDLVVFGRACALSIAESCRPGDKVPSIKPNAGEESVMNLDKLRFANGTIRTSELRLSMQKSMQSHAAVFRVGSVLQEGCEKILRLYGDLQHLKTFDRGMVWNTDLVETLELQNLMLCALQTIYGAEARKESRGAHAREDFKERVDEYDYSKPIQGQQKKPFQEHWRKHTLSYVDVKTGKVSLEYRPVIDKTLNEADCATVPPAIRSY
# Method: This test was used to determine the inhibitory activity on the succinate dehydrogenase of the compounds prepared in Example 1, Preparation Examples 1 and 2 .
# The enzyme used in the test example was succinate dehydrogenase, which was isolated from pig hearts.
# Test Method: total volume was 1.8ml, the system comprised 100mM Na2HPO4-NaH2PO4 buffer (pH7.4), 0.3mM EDTA, 20mM sodium succinate, 53µM DCIP (2,6-dichloro indophenol sodium), 2nM succinate dehydrogenase. In water bath with 23 °C of constant temperature and 600rpm magnetic stirring, the reduction of the light absorption of substrate DCIP was monitored at a wavelength of 600nm, the experimental points within the linear range were collected, that is, the experimental points in which the consumption of substrate was controlled not exceeding 5% were collected. The molar extinction coefficient of DCIP was 21mM^-1cm^-1. The reduction amount of DCIP during the reaction time was calculated and linear slope was fitted, and then the initial velocity of the reaction was obtained by deducting the baseline slope.
compound,measurement,setting,value
Cn1cc(C(=O)Nc2ccccc2Oc2ccc(C#N)cc2)c(C(F)F)n1 [III-7],pest or weed control at 200 µg/mL,[1],0%
same,pest or weed control at 200 µg/mL,[2],45%
same,IC50,[3],> 100 µM
Cn1cc(C(=O)Nc2ccccc2Oc2ccccc2Cl)c(C(F)(F)F)n1 [III-8],pest or weed control at 200 µg/mL,[1],0%
same,pest or weed control at 200 µg/mL,[2],81.9%
same,IC50,[3],1.98 ± 1.39 µM
Cn1cc(C(=O)Nc2ccccc2Oc2ccc(Cl)cc2)c(C(F)(F)F)n1 [III-9],pest or weed control at 200 µg/mL,[1],0%
same,pest or weed control at 200 µg/mL,[2],66.3%
same,IC50,"[3]; succinate dehydrogenase isolated from pig hearts, pH7.4, 23 °C",4.9 ± 1.28 µM
Cn1cc(C(=O)Nc2ccccc2Oc2ccc(Cl)cc2)c(C(F)F)n1 [III-10],pest or weed control at 200 µg/mL,[1],0%
same,pest or weed control at 200 µg/mL,[2],68.3%
same,IC50,[3],2.02 ± 1.15 µM
Cn1cc(C(=O)Nc2ccccc2Oc2ccc(C(F)(F)F)cc2)c(C(F)(F)F)n1 [III-11],pest or weed control at 200 µg/mL,[1],0%
same,pest or weed control at 200 µg/mL,[2],56.3%
same,IC50,[3],3.17 ± 1.12 µM
Cn1cc(C(=O)Nc2ccccc2Oc2ccc(C(F)(F)F)cc2)c(C(F)F)n1 [III-12],pest or weed control at 200 µg/mL,[1],0%
same,pest or weed control at 200 µg/mL,[2],72.3%
same,IC50,[3],1.62 ± 1.35 µM
Cc1cccc(Oc2ccccc2NC(=O)c2cn(C)nc2C(F)(F)F)c1C [III-13],pest or weed control at 200 µg/mL,[1],0%
same,pest or weed control at 200 µg/mL,[2],63.2%
same,IC50,[3],9.86 ± 1.27 µM
Cc1cccc(Oc2ccccc2NC(=O)c2cn(C)nc2C(F)F)c1C [III-14],pest or weed control at 200 µg/mL,[1],0%
same,pest or weed control at 200 µg/mL,[2],65.9%
same,IC50,[3],3.22 ± 1.33 µM
Cc1cc(C)cc(Oc2ccccc2NC(=O)c2cn(C)nc2C(F)(F)F)c1 [III-15],pest or weed control at 200 µg/mL,[1],0%
same,pest or weed control at 200 µg/mL,[2],55.2%
same,IC50,[3],5.12 ± 1.04 µM
Cc1cc(C)cc(Oc2ccccc2NC(=O)c2cn(C)nc2C(F)F)c1 [III-16],pest or weed control at 200 µg/mL,[1],0%
same,pest or weed control at 200 µg/mL,[2],50%
same,IC50,[3],2.03 ± 1.22 µM
"Cc1nc(C(F)(F)F)c(C(=O)Nc2c(Br)cc(OC(F)(F)F)cc2Br)s1 [Thifluzamide, reference compound]",efficacy on cucumber powery mildew(%),[1]; concentration 12.5 mg/L,0%
same,efficacy on cucumber powery mildew(%),[1]; concentration 25 mg/L,22.22%
same,efficacy on cucumber powery mildew(%),[1]; concentration 50 mg/L,62.96%
same,efficacy on cucumber powery mildew(%),[1]; concentration 100 mg/L,100%
same,efficacy on rice sheath bilght(%),[2]; concentration 1.5 mg/L,0%
same,efficacy on rice sheath bilght(%),[2]; concentration 3.25 mg/L,13.38%
same,efficacy on rice sheath bilght(%),[2]; concentration 6.25 mg/L,54.30%
same,efficacy on rice sheath bilght(%),[2]; concentration 12.5 mg/L,61.36%
same,efficacy on rice sheath bilght(%),[2]; concentration 25 mg/L,81.85%
same,efficacy on rice sheath bilght(%),[2]; concentration 50 mg/L,100%
same,efficacy on rice sheath bilght(%),[2]; concentration 100 mg/L,100%
same,inhibition at 0.03 µM,"[3]; concentration 0.03 µM, read-out: inhibition ratio(%)",0%
same,inhibition at 0.05 µM,"[3]; concentration 0.05 µM, read-out: inhibition ratio(%)",9.21%
same,inhibition at 0.1 µM,"[3]; concentration 0.1 µM, read-out: inhibition ratio(%)",29.7%
same,inhibition at 0.2 µM,"[3]; concentration 0.2 µM, read-out: inhibition ratio(%)",47.6%
same,inhibition at 0.3 µM,"[3]; concentration 0.3 µM, read-out: inhibition ratio(%)",59.5%
same,inhibition at 0.5 µM,"[3]; concentration 0.5 µM, read-out: inhibition ratio(%)",71.7%
same,inhibition at 1 µM,"[3]; concentration 1 µM, read-out: inhibition ratio(%)",77.9%
same,inhibition at 10 µM,"[3]; concentration 10 µM, read-out: inhibition ratio(%)",94.5%
same,inhibition at 50 µM,"[3]; concentration 50 µM, read-out: inhibition ratio(%)",96.7%
same,IC50,"[3]; succinate dehydrogenase isolated from pig hearts, pH7.4, 23 °C, read-out: IC50",0.2 ± 0.0121 µM
